From patent US8198273B2, “Compounds and methods for kinase modulation, and indications therefor” (Plexxikon Inc., priority 2009, dated 2012) come the findings set out here.

The target in data set [1] is CYP2C9 (Homo sapiens, UniProt P11712). As to the kind of experiment: CYP2C9 inhibition (fluorescent substrate). Type of data set: in vitro ADME. The following applies: CYP2C9, MFC substrate; read-out: Cyp IC50 2C9. The procedure:
CYP (Cytochrome P450) enzymes are the major drug metabolizing enzymes present in the liver. The inhibition of CYP enzyme activity (IC50) for each of CYP1A2, CYP2C19, CYP2C9, CYP2D6, CYP3A4(BFC) and CYP3A4(BQ) is determined for compounds, where inhibition of metabolism of a known substrate leads to a decrease in the fluorescence of the metabolized product. The fluorescence of the product is monitored as a function of compound concentration.
Compounds are dissolved in dimethyl sulfoxide to a concentration of 100 mM. These are diluted 1 μL into 82 μL of acetonitrile. […] These are then serially diluted 1:1 (160 μL to 160 μL co-factor mix) for a total of 10 points. A 10 μL aliquot of this final mixture is dispensed into 384 well assay plates and incubated for 10 minutes at 37° C. […] Assay plates are incubated at 37° C. […] The signal versus compound concentration is used to determine the IC50. The enzymes and substrates for this assay are obtained from BD Biosciences.

Data set [2] relates to COLO205 colon adenocarcinoma cells (B-Raf V600E). As to the kind of experiment: COLO205 cell growth inhibition (ATPlite). Type of data set: cell-based. The following applies: Homo sapiens, COLO 205, 72 h; COLO205, 3 days incubation. The procedure: Compounds are assessed in a variety of cell based assays. For example human cell lines with B-Raf V600E mutation (A375 melanoma, SKMEL3 melanoma, and COL0205 colon adenocarcinoma), as well as tumorigenic cell lines with wild-type B-RAF (SW620 colon adenocarcinoma) or with Ras mutations (SKMEL2 melanoma and IPC298 melanoma). Similar assays may be used to assess additional tumorigenic cell lines with Ras mutations, including, but not limited to, M202, M207, M243, M244, M296, S117, HCT116, HCT15, DLD1, MiaPaCa, A549, NCI-H23, NCI-H460, HOP62, MDA-MB231, Hs-578T, HL60, MOLT-4, and CCRF-CEM.
On day 1, cells are counted, then centrifuged in a conical tube for 5 minutes at 1000 rpm. The supernatant is removed and cells are re-suspended as follows: • SW620 (ATCC catalog #CCL-27): resuspend in Leibovitz's L-15 medium, 2 mM L-glutamine, 10% fetal bovine serum to 6×10^4 cells/mL. • A375 (ATCC catalog #CRL-1619): resuspend in Dulbecco's modified Eagle's medium, 4 mM L-glutamine, 4.5 g/L D-glucose, 10% fetal bovine serum to 6×10^4 cells/mL. • COL0205 (ATCC catalog #CCL-222): resuspend in RPMI 1640, 2 mM L-glutamine, 1.5 g/L sodium bicarbonate, 4.5 g/L D-glucose, 10 mM HEPES, 1.0 mM sodium pyruvate, 10% fetal bovine serum to 6×10^4 cells/mL. • SKMEL2 (ATCC catalog #HTB-68): resuspend in Minimum Eagle essential medium, 2 mM L-glutamine, 1.5 g/L sodium bicarbonate, 0.1 mM non-essential amino acids, 1.0 mM sodium pyruvate, 10% fetal bovine serum to 6×10^4 cells/mL. • SKMEL3 (ATCC catalog #HTB-69): resuspend in McCoy's 5A medium, 1.5 mM L-glutamine, 15% fetal bovine serum to 6×10^4 cells/mL. • IPC298 (DSMZ catalog #ACC 251): resuspend in RPMI 1640, 2 mM L-glutamine, 10% fetal bovine serum to 6×10^4 cells/mL.
The cells are plated, 50 μL in each well of a 96-well dish (Corning 3610) and incubated at 37° C. in 5% CO2 overnight, cells plated to a final concentration of cells as follows:
On day 2, compound at a maximum concentration of 5 mM is serially diluted 1:3 for a total of 8 point titration with DMSO as a control. A 1 μL aliquot of each dilution point and control is added to 249 μL growth media and 50 μL is added to a well containing cells, providing 10 μM compound at the maximum concentration point. The cells are incubated for 3 days at 37° C. in 5% CO2.
On day 5, ATPlite 1 step Luminescence Assay System (Perkin Elmer #6016739) is brought to room temperature along with the cell cultures. ATPlite is added 25 μL to each well, shake for 2 minutes, and the cells are incubated at room temperature for 10 minutes, then luminescence is read on Safire reader. The measured luminescence correlates directly with cell number, such that the reading as a function of compound concentration is used to determine the IC50 value.
It is understood that the results of these assays may vary as assay conditions are varied. Inhibition levels determined under the conditions described herein represent a relative activity for the compounds tested under the specific conditions employed. The cell based assays are likely to show variability due to the complexity of the system and the sensitivity thereof to any changes in the assay conditions. […] Results for compounds that are tested and show substantially no inhibition below the highest tested concentration are represented as “-” in the tables below. In some instances, the compounds were not tested in all of the assays, or assay results were not valid, as indicated by NA in the tables below.

Data set [3] is described as follows: Relative solubility by turbidity in aqueous buffers of varying pH. Type of data set: physicochemical. The following applies: for turbidity threshold (L, M, H) 7.4: HEPES pH 7.4; for turbidity threshold (L, M, H) 4.5: SIF pH 4.5; for turbidity threshold (L, M, H) 6.8: SIF pH 6.8; for turbidity threshold (L, M, H) 1.4: buffer pH 1.4 (SGF). The method, boiled down: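 Turbidity endpoint: concentration where optical density at 490, 535 and 650 nm exceeds 0.01, three-wavelength average used. Buffers at pH 1.5, 4.5, 6.8 and 7.4; DMSO serial dilutions of 25 mM stock spiked 1 μL into 99 μL buffer. Low <31.3, moderate 31.3–250, high >250 μM.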

The IC50 is the concentration that inhibits the measured activity by half.

Molecules are shown by their SMILES. Some results are limits rather than exact numbers.

Sequence of CYP2C9 (P11712 whole entry): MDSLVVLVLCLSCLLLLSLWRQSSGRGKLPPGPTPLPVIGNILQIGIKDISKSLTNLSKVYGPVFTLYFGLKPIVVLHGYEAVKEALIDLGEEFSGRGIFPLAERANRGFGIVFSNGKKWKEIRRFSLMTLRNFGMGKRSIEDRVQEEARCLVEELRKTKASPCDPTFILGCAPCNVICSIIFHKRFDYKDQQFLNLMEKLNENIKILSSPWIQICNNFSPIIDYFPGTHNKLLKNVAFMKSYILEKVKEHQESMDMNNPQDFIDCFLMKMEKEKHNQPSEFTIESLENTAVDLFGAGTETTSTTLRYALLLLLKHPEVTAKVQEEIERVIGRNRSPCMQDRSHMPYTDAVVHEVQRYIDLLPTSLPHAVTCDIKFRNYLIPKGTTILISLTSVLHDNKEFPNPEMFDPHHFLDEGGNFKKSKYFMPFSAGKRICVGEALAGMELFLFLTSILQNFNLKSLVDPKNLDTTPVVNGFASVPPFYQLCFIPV

Turning to `CCCS(=O)(=O)Nc1ccc(F)c(C(=O)c2c[nH]c3ncc(-c4ccc(N)nc4)cc23)c1F` [P-2214, Propane-1-sulfonic acid {3-[5-(6-amino-pyridin-3-yl)-1H-pyrrolo[2,3-b]pyridine-3-carbonyl]-2,4-difluoro-phenyl}-amide], the IC50 in data set [1] is greater than 10 µM; in data set [2], less than 1 µM.
For `CCCS(=O)(=O)Nc1ccc(F)c(C(=O)c2c[nH]c3ncc(-c4ccc(S(=O)(=O)CC)cc4)cc23)c1F` [P-2218, Propane-1-sulfonic acid {3-[5-(4-ethanesulfonyl-phenyl)-1H-pyrrolo[2,3-b]pyridine-3-carbonyl]-2,4-difluoro-phenyl}-amide], in that order: greater than 10 µM and less than 0.1 µM.
For `N#Cc1ccnc2[nH]cc(C(=O)c3c(F)ccc(NS(=O)(=O)c4cccc(F)c4)c3F)c12` [P-2039, N-[3-(4-Cyano-1H-pyrrolo[2,3-b]pyridine-3-carbonyl)-2,4-difluoro-phenyl]-3-fluoro-benzenesulfonamide], in that order: greater than 10 µM and less than 5 µM.
For `N#Cc1cnc2[nH]cc(C(=O)c3c(F)ccc(NS(=O)(=O)c4cccnc4)c3F)c2c1` [P-2072, Pyridine-3-sulfonic acid [3-(5-cyano-1H-pyrrolo[2,3-b]pyridine-3-carbonyl)-2,4-difluoro-phenyl]-amide], in that order: greater than 10 µM and less than 5 µM.
Consider `CCCS(=O)(=O)Nc1ccc(F)c(C(=O)c2c[nH]c3ncc(-c4ccc(Cl)nc4)cc23)c1F` [P-2154, Propane-1-sulfonic acid {3-[5-(6-chloro-pyridin-3-yl)-1H-pyrrolo[2,3-b]pyridine-3-carbonyl]-2,4-difluoro-phenyl}-amide], for which the figures for the IC50 in data set [1] and in data set [2] were 5 to 10 µM and less than 1 µM, respectively.
For `CCCc1ccc(-c2cnc3[nH]cc(C(=O)c4c(F)ccc(NS(=O)(=O)CCC)c4F)c3c2)cn1` [P-2224, Propane-1-sulfonic acid {2,4-difluoro-3-[5-(6-propyl-pyridin-3-yl)-1H-pyrrolo[2,3-b]pyridine-3-carbonyl]-phenyl}-amide], the IC50 was 5 to 10 µM in data set [1] and less than 1 µM in data set [2].
For `CCCS(=O)(=O)Nc1ccc(F)c(C(=O)c2c[nH]c3ncc(-c4ccc(SC)nc4)cc23)c1F` [P-2187, Propane-1-sulfonic acid {2,4-difluoro-3-[5-(6-methylsulfanyl-pyridin-3-yl)-1H-pyrrolo[2,3-b]pyridine-3-carbonyl]-phenyl}-amide], in that order: greater than 10 µM and less than 1 µM.
For `CCCS(=O)(=O)Nc1ccc(F)c(C(=O)c2c[nH]c3ncc(-c4ccc(S(=O)(=O)NC)cc4)cc23)c1F` [P-2167, 4-{3-[2,6-Difluoro-3-(propane-1-sulfonylamino)-benzoyl]-1H-pyrrolo[2,3-b]pyridin-5-yl}-N-methyl-benzenesulfonamide], in that order: 5 to 10 µM and less than 0.1 µM.
`N#Cc1cnc2[nH]cc(C(=O)c3cccc(NS(=O)(=O)c4ccccc4)c3F)c2c1` [P-2056, N-[3-(5-Cyano-1H-pyrrolo[2,3-b]pyridine-3-carbonyl)-2-fluoro-phenyl]-benzenesulfonamide]: in data set [3], the “turbidity threshold (L, M, H) 7.4” value is “M (moderate solubility if the threshold concentration is 31.3 μM to 250 μM)”; the “turbidity threshold (L, M, H) 4.5” value is “L (low solubility if the threshold concentration is <31.3 04)”; the “turbidity threshold (L, M, H) 6.8” value is given as “M (moderate solubility if the threshold concentration is 31.3 μM to 250 μM)”; the “turbidity threshold (L, M, H) 1.4” value was “L (low solubility if the threshold concentration is <31.3 04)”. Also, the IC50 in data set [2] was less than 5 µM.
As for `N#Cc1cnc2[nH]cc(C(=O)c3c(F)ccc(NS(=O)(=O)c4c(F)cccc4F)c3F)c2c1` [P-2029, N-[3-(5-Cyano-1H-pyrrolo[2,3-b]pyridine-3-carbonyl)-2,4-difluoro-phenyl]-2,6-difluoro-benzenesulfonamide], the figures for the IC50 in data set [1] and in data set [2] were greater than 10 µM and less than 5 µM, respectively.
As for `COc1ccnc2[nH]cc(C(=O)c3c(F)ccc(NS(=O)(=O)c4c(F)cccc4F)c3F)c12` [P-2031, N-[2,4-Difluoro-3-(4-methoxy-1H-pyrrolo[2,3-b]pyridine-3-carbonyl)-phenyl]-2,6-difluoro-benzenesulfonamide], the IC50 in data set [1] is greater than 10 µM; in data set [2], less than 5 µM.
For `O=C(c1c(F)ccc(NS(=O)(=O)c2c(F)cccc2F)c1F)c1c[nH]c2nccc(Cl)c12` [P-2033, N-[3-(4-Chloro-1H-pyrrolo[2,3-b]pyridine-3-carbonyl)-2,4-difluoro-phenyl]-2,6-difluoro-benzenesulfonamide], in that order: greater than 10 µM and less than 10 µM.
For `N#Cc1ccnc2[nH]cc(C(=O)c3c(F)ccc(NS(=O)(=O)c4cc(F)ccc4F)c3F)c12` [P-2036, N-[3-(4-Cyano-1H-pyrrolo[2,3-b]pyridine-3-carbonyl)-2,4-difluoro-phenyl]-2,5-difluoro-benzenesulfonamide], in that order: greater than 10 µM and less than 1 µM.
For `COc1ccnc2[nH]cc(C(=O)c3c(F)ccc(NS(=O)(=O)c4cccnc4)c3F)c12` [P-2073, Pyridine-3-sulfonic acid [2,4-difluoro-3-(4-methoxy-1H-pyrrolo[2,3-b]pyridine-3-carbonyl)-phenyl]-amide], in that order: greater than 10 µM and less than 10 µM.
In the case of `N#Cc1cnc2[nH]cc(C(=O)c3cccc(NS(=O)(=O)c4ccccc4F)c3F)c2c1` [P-2051, N-[3-(5-Cyano-1H-pyrrolo[2,3-b]pyridine-3-carbonyl)-2-fluoro-phenyl]-2-fluoro-benzenesulfonamide], the IC50 in data set [1] fell in the range of 5 to 10 µM. In addition, in data set [3], the “turbidity threshold (L, M, H) 7.4” value is “M (moderate solubility if the threshold concentration is 31.3 μM to 250 μM)”; the “turbidity threshold (L, M, H) 4.5” value is reported as “M (moderate solubility if the threshold concentration is 31.3 μM to 250 μM)”; the “turbidity threshold (L, M, H) 6.8” value is listed as “M (moderate solubility if the threshold concentration is 31.3 μM to 250 μM)”; the “turbidity threshold (L, M, H) 1.4” value is on record as “M (moderate solubility if the threshold concentration is 31.3 μM to 250 μM)”.
